Experimental findings from patent EP0612730A1, “O-aryl ethers of morphinans” (F. HOFFMANN-LA ROCHE AG, priority 1993, dated 1994) are described below.

Each structure is given as a SMILES string. Counter-ions that a name gives are not always drawn.

By IC50 is commonly meant the concentration that gives 50% inhibition.

For test [1], the system named is cell suspensions prepared from embryonic rat cortices. Kind of test: Acute glutamate neurotoxicity in cortical cell cultures (lactate dehydrogenase release). It counts as cell-based. Conditions: embryonic rat cortical cultures 8-12 days in vitro, glutamate for 5 to 30 min at room temperature, LDH in supernatant after overnight at 37°C. On the procedure: 2. Acute glutamate neurotoxicity
Single cell suspensions were prepared from embryonic rat cortices by digestion with dispase (2.4 U/ml) and subsequent trituration with fire polished Pasteur pipettes. The cells were then plated on poly-D-lysine coated microtiter plates (96 well/plate, 10⁵ cells/well) in a total volume of 100 µl essential medium supplemented with 10% horse serum and penicillin/streptomycin . Five days later, non-neuronal cell division was halted by exposure to […] combined with a 50% exchange of culture medium. The cultures were used for neurotoxicity assays from 8-12 days in vitro. Acute glutamate toxicity was performed as described in J. Koh et al. in Neurosci. 8, 1988, 185-196, in […] of a control salt solution [CSS: 120 mM NaCl, 5.4 mM KCl, 0.8 mm MgCl₂, 1.8 mM CaCl₂, 25 mM Tris HCl (pH 7.4 at 25°C) and 15 mM glycose] with […] glutamate for 5 to 30 min at room temperature with or without addition of substances to be tested.After washing, the cultures were maintained in 100 µl CSS overnight at 37°C. For quantitation of neurodegeneration, lactate dehydrogenase was measured in the cell culture supernatant as described by J.G. Klingman et al. in Neurosci. Meth. 31, 1990, 47-51. […] From dose response curves, IC₅₀ values were calculated.

The test system of the next test is NMDA receptor. The test is described as follows: NMDA-induced convulsions in mice (NMDA-induced anticonvulsant test). It counts as in vivo. Conditions: NMDA 175 mg/kg i.p. 30 min after i.p. test compound (60 min after oral), percent protection = 100 (E-C)/(10-C), dose and route of test compound not given. The text has this:
As indicated above, the compounds of formula I are active as non-competitive NMDA receptor antagonists and are therefore, useful as neuroprotecting agents, for example, in the treatment of injury to central neurons associated with ischemia, hypoxia, hypoglycemia, epilepsy, Huntington's disease or Alzheimer's disease.
1. NMDA-Induced convulsions in mice
Male mice 45-54 days old and weighing 18-30 g are food-deprived for 24 hrs and then assigned in groups of 10 to various treatment conditions. In general, the method of Lehmann et al. described in J. Pharmacol. Exp. Ther. 240, 1987, 737-746, is used. Mice are administered a test compound intraperitoneally and are injected with NMDA (175 mg/kg i.p.) 30 minutes later. If any test compound is administered orally, the NMDA is injected 60 minutes later. NMDA is dissolved in 0.9% saline. Test compounds are likewise dissolved in 0.9% saline or, when necessary, suspended in 5% gum acacia. All injections are made in a volume of 0.2 ml/20 g body weight. […] Results are represented as the number of mice protected at each dose level of a test compound; this gives an indication of the degree of protection at each dose and indicates whether there was a dose level at which complete protection occurred. A formula is used which adjusts for the number of mice "protected" in the control group, since the dose of NMDA used induces convulsions in less than 100 percent of the mice in the control group. The formula used is: percent protection = 100 (E-C)/(10-C), where E is the number of mice protected at the dose of the test compound, C is the number of mice not convulsing in the vehicle control group, and 10 is the number of mice per group. A given dose level of a compound is regarded as being active if this percent protection score is equal to or greater than 50 percent.

As for `CN1CC[C@@]23CCCC[C@@H]2[C@@H]1Cc1ccc(Oc2ncccc2N)cc13` [2 HCl], the IC50 in test [1] is 14 µM.

In the case of `CN1CC[C@]23CCCC[C@H]2[C@H]1Cc1ccc(Oc2ccccn2)cc13` [Example 2, (+)-3-(2-pyridyloxy)-N-methyl-morphinan], inhibition in test [1] was half-maximal at 4 µM (IC50). As to `CC(C)(CO)N1CC[C@]23CCCC[C@H]2[C@H]1Cc1ccc(Oc2ccccn2)cc13` [Example 18, (+)-β,β-dimethyl-3-(2-pyridinyloxy)morphinan-17-ethanol], in test [1], the IC50 is 14 µM. Besides, the “% mice protected” value in the test with NMDA receptor worked out at 50%. For the compound `Cc1cccc(Oc2ccc3c(c2)[C@@]24CCCC[C@H]2[C@@H](C3)NCC4)n1` [Example 22, (+)-3-[6-methyl-(2-pyridinyl)oxy] morphinan], the IC50 in test [1] fell in the range of 1 to 2 µM. In the case of `CN1CC[C@@]23CCCC[C@@H]2[C@@H]1Cc1ccc(Oc2nccs2)cc13` [Fumarate (the 1st table, row 4)], the “% mice protected” value with NMDA receptor is listed as 86%. For `CN1CC[C@@]23CCCC[C@@H]2[C@@H]1Cc1ccc(Oc2cccc(Br)n2)cc13` [Fumarate (the 1st table, row 6)], in the test with NMDA receptor, the “% mice protected” value is 67%. With `CN1CC[C@@]23CCCC[C@@H]2[C@@H]1Cc1ccc(Oc2cccc(Br)n2)cc13` [Fumarate (the 3rd table, row 5)], the IC50 in test [1] lay within 1 to 2 µM. Same read-out and setting: the same measure for `CN1CC[C@@]23CCCC[C@@H]2[C@@H]1Cc1ccc(Oc2nccs2)cc13` [Fumarate (the 3rd table, row 10)]: 5 µM. The same measure, in the same setting: as for `CN1CC[C@@]23CCCC[C@@H]2[C@@H]1Cc1ccc(Oc2cccnc2)cc13` [Fumarate], the figure is 6.4 µM. On the same count and under the same terms, as for `CN1CC[C@@]23CCCC[C@@H]2[C@@H]1Cc1ccc(Oc2cccs2)cc13` [Fumarate], the figure is 13 µM; as for `CN1CC[C@@]23CCCC[C@@H]2[C@@H]1Cc1ccc(Oc2ncccc2[N+](=O)[O-])cc13` [Fumarate], 5 µM; as for `CN1CC[C@@]23CCCC[C@@H]2[C@@H]1Cc1ccc(Oc2ncccn2)cc13` [Fumarate], 4 µM. Take `Cc1cccc(Oc2ccc3c(c2)[C@]24CCCC[C@@H]2[C@H](C3)N(C)CC4)n1` [Fumarate]: the IC50 in test [1] was 0.2 µM. Same read-out and setting: as for `O=[N+]([O-])c1cccnc1Oc1ccc2c(c1)[C@]13CCCC[C@@H]1[C@H](C2)NCC3` [HCl], the figure is 0.5 µM; as for `c1ccc(Oc2ccc3c(c2)[C@]24CCCC[C@@H]2[C@H](C3)NCC4)cc1` [HCl], 1 µM. The same measure, in the same setting: as for `c1ccc(Oc2ccc3c(c2)[C@]24CCCC[C@@H]2[C@H](C3)NCC4)nc1` [Maleate], the figure is 6 µM; as for `c1csc(Oc2ccc3c(c2)[C@]24CCCC[C@@H]2[C@H](C3)NCC4)n1` [Maleate], 8 µM. Take `CN1CC[C@@]23CCCC[C@@H]2[C@@H]1Cc1ccc(Oc2ccccc2)cc13` [Oxalate]: 6 µM corresponded to half-maximal inhibition in test [1] (IC50).

Turning to `CN1CC[C@@]23CCCC[C@@H]2[C@@H]1Cc1ccc(Oc2ccccn2)cc13` [Oxalate], the “% mice protected” value in the test with NMDA receptor came to 86%.
